Reference: patent US20250223301A1, “KINASE INHIBITORS, PREPARATION METHODS AND USES THEREOF” (InventisBio Co., Ltd., priority 2022, published 2025)

How the values were obtained:
DGKa = DGKa (Homo sapiens (Human), UniProt P23743); assay: biochemical;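 also: biochemical DGK kinase assay, ADP-Glo luminescence from ADP made by phosphorylating 1,2-dioleoyl-sn-glycerol, 20 min compound preincubation then 40 min reaction at 25 °C, 1% DMSO control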
DGKz = DGKz (Homo sapiens (Human), UniProt Q13574); assay: DGK ADP-Glo kinase assay (DGKz); type: biochemical; details: 5 nM DGKz, 15 uM ATP
Experimental: Luminescence was recorded using an Tecan SPARK microplate reader.

PBMC = assay: Human PBMC IL-2 assay; type: cell-based; details: anti-CD3/CD28 stimulation overnight, IL-2 level
Experimental: PBMC (frozen) obtained from health donor were thawed in RPMI-1640 medium with 10% FBS and incubated for 4 h at 37° C. In a 96-well plate, −200,000 PBMC cells in 160 uL were added to each assay well. Ten microliter compound solution (10 uM to 0.6 nM, 8 points with 4-fold dilution) were added to cells in each well and incubated for 60 minutes at 37° C. Then 30 uL anti-CD3/CD28 antibody (Catalog #10991, Stemcell) were added to cells and incubated overnight at 37° C. After the incubation, 16 uL supernatants were transferred into a new 384-well white assay plate for cytokine analysis. IL-2 level was quantified using Human IL-2 kit (Catalog #62HIL02PEG, Cisbio) as described in the manufacturer manual.
(§1) X is log of compound concentration, Y is the IL-2 concentration, increasing as X increases.

Jurkat cells = assay: Jurkat IL-2 assay; type: cell-based; details: Homo sapiens, anti-CD3/CD28 stimulation overnight, IL-2 level
Experimental: Jurkat cells (ATCC) were cultured in RPMI-1640 medium supplemented with 10% FBS. In a 96-well plate, −250,000 cells in 130 uL were added to each assay well. Ten microliter compound solution (5 uM to 2.3 nM, 8 points with 3-fold dilution) were added to cells in each well and incubated for 60 minutes at 37° C. Then 10 uL anti-CD3/CD28 antibody (Catalog #10991, Stemcell) were added and incubated overnight at 37° C. After the incubation, 16 uL supernatants were transferred into a new 384-well white assay plate for cytokine analysis. IL-2 was quantified using Human IL-2 kit (Catalog #62HIL02PEG, Cisbio) as described in the manufacturer manual.
as §1

Sequence of DGKa (P23743 whole entry): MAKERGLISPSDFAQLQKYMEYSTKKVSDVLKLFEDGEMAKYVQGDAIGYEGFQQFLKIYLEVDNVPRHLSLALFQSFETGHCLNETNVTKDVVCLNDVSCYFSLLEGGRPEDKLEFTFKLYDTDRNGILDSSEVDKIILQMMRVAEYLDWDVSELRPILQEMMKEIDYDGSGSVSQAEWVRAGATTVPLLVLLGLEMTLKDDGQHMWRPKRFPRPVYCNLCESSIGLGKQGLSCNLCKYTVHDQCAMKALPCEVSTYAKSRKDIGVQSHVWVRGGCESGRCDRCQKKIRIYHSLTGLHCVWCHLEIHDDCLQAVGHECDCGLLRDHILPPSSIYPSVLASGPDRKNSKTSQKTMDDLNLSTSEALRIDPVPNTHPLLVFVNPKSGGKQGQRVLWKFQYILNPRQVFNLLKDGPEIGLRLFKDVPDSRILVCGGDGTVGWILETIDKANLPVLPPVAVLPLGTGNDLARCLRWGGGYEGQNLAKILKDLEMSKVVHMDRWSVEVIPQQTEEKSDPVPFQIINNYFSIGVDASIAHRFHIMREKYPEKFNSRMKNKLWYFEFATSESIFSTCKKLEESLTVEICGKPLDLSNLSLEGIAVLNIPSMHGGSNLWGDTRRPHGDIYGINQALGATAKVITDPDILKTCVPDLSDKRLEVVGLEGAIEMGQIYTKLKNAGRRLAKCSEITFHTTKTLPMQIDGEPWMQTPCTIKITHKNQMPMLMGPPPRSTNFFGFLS
Sequence of DGKz (Q13574 whole entry): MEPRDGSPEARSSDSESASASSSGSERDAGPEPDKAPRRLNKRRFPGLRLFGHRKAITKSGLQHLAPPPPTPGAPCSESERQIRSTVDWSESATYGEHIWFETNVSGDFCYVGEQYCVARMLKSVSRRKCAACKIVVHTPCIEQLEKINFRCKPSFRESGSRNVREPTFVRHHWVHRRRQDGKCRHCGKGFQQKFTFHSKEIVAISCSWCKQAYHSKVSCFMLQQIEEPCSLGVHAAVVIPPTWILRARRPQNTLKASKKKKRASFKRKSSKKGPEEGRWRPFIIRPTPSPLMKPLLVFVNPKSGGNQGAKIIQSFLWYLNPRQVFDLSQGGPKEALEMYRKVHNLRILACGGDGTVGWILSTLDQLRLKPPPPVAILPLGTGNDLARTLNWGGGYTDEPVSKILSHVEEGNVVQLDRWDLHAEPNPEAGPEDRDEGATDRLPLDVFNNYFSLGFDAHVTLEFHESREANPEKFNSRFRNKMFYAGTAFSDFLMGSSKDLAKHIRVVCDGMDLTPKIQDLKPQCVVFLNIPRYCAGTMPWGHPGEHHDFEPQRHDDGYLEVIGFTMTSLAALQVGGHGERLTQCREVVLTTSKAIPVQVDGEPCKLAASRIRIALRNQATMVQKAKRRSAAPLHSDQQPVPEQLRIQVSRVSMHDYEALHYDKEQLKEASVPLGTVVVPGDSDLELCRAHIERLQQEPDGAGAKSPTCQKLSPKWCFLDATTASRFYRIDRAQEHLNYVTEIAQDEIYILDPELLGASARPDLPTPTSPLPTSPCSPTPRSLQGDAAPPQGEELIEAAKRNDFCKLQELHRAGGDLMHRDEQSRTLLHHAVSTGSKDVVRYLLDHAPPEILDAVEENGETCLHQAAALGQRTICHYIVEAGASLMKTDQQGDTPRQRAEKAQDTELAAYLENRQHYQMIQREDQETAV

Compound | IC50 (DGKa) | IC50 (DGKz) | EC50 (PBMC) | EC50 (Jurkat cells)
CC[C@H]1C[C@]2(CCN1c1nc(=O)n(C)c3ccc(C#N)nc13)CC(c1ccc(OC(F)(F)F)cc1)=NO2 (single isomer, unassigned) [Compound 74] | 10 nM | 1570 nM | – | –
CC[C@@H]1C[C@@]2(CCN1c1nc(=O)n(C)c3ccc(C#N)nc13)CC(c1ccc(OC(F)(F)F)cc1)=NO2 (single isomer, unassigned) [Compound 75] | 253 nM | 660 nM | – | –
CC[C@H]1C[C@@H](c2nc3cc(C)ccc3o2)CCN1c1nc(=O)n(C)c2cc(O[C@@H]3CCOC3)c(Cl)cc12 (single isomer, unassigned) [Compound 94] | 140 nM | 1300 nM | – | –
CC[C@H]1C[C@H](c2nc3cc(C)ccc3o2)CCN1c1nc(=O)n(C)c2cc(OC3CCOC3)c(Cl)cc12 (single isomer, unassigned) [Compound 97] | 5 nM | 6 nM | – | –
CC[C@H]1CN([C@@H](CC)c2ccc(OC(F)(F)F)cc2)[C@H](CC)CN1c1nc2nncn2c2ccc(C#N)nc12 (single isomer, unassigned) [Compound 100] | 1 nM | 30 nM | – | –
CC[C@@H]1CN2c3c(c(=O)n(C)c4ccc(C#N)nc34)OC[C@@H]2CN1[C@@H](CC)c1ccc(Cl)c(C(F)(F)F)c1 (stereo in doubt) [Compound 327] | – | – | 103 nM | 64 nM
CC[C@H](c1ccc(C(F)(F)F)c(F)c1)N1C[C@H]2COc3c(c4nc(C#N)ccc4n(C)c3=O)N2C[C@H]1C (stereo in doubt) [Compound 328] | – | – | 302 nM | 339 nM
CC[C@@H](c1ccc(C(F)(F)F)c(F)c1)N1C[C@H]2COc3c(c4nc(C#N)ccc4n(C)c3=O)N2C[C@H]1C (stereo in doubt) [Compound 329] | – | – | 54 nM | 97 nM
CC[C@@H]1CN2c3c(c(=O)n(C)c4ccc(C#N)nc34)OC[C@@H]2CN1[C@H](CC)c1ccc(F)c(C)c1 (stereo in doubt) [Compound 336] | – | – | 163 nM | 131 nM
CC[C@@H]1CN2c3c(c(=O)n(C)c4ccc(C#N)nc34)OC[C@@H]2CN1[C@@H](CC)c1ccc(F)c(C)c1 (stereo in doubt) [Compound 337] | – | – | 16 nM | 12 nM
CC[C@@H]1CN2c3c(c(=O)n(C)c4ccc(C#N)nc34)OC[C@@H]2CN1[C@H](CC)c1ccc(C)c(F)c1 (stereo in doubt) [Compound 338] | – | – | 153 nM | 86 nM
CC[C@@H]1CN2c3c(c(=O)n(C)c4ccc(C#N)nc34)OC[C@@H]2CN1[C@@H](CC)c1ccc(C)c(F)c1 (stereo in doubt) [Compound 339] | – | – | 13 nM | 7 nM
CC[C@@H]1CN2c3c(c(=O)n(C)c4ccc(C#N)nc34)OC[C@@H]2CN1[C@@H](CC)c1ccc(Cl)c(C)c1 (stereo in doubt) [Compound 341] | – | – | 13 nM | 6 nM
CC[C@@H]1CN2c3c(c(=O)n(C)c4ccc(C#N)nc34)OC[C@@H]2CN1[C@H](CC)c1ccc(C)c(Cl)c1 (stereo in doubt) [Compound 342] | – | – | 280 nM | 125 nM
CC[C@@H]1CN2c3c(c(=O)n(C)c4ccc(C#N)nc34)OC[C@@H]2CN1[C@@H](CC)c1ccc(C)c(Cl)c1 (stereo in doubt) [Compound 343] | – | – | 18 nM | 45 nM
CC[C@@H]1CN2c3c(c(=O)n(C)c4ccc(C#N)nc34)OC[C@@H]2CN1[C@H](CC)c1ccc(C)cc1 (stereo in doubt) [Compound 344] | – | – | 53 nM | 96 nM
CC[C@@H]1CN2c3c(c(=O)n(C)c4ccc(C#N)nc34)OC[C@@H]2CN1[C@@H](CC)c1ccc(C)cc1 (stereo in doubt) [Compound 345] | – | – | 10 nM | 18 nM
CC[C@H]1CN(C2CCCOc3cc(C(F)(F)F)ccc32)[C@H](CC)CN1c1nc(=O)n(C)c2ccc(C#N)nc12 (stereo partly drawn) [Compound 154] | – | – | 734 nM | 526 nM

Compound | IC50 (DGKa) | IC50 (DGKz) | EC50 (PBMC) | EC50 (Jurkat cells)
CC[C@H]1CN2[C@@H](COC[C@@H]2c2ccc(C(F)(F)F)cc2)CN1c1nc(=O)n(C)c2ccc(C#N)nc12 [Compound 193] | – | – | 1310 nM | 1620 nM
CC[C@@H]1CN2c3c(c(=O)n(C)c4ccc(C#N)nc34)N(C)C(=O)[C@@H]2CN1[C@H](CC)c1ccc(C(F)(F)F)cc1 [Compound 199] | – | – | 1580 nM | 873 nM
CC[C@@H]1CN2c3c(c(=O)n(C)c4ccc(C#N)cc34)OC[C@@H]2CN1[C@@H](CC)c1ccc(C(F)(F)F)cc1 [Compound 210] | – | – | 1720 nM | 565 nM
CC[C@@H]1CN2c3c(c(=O)n(C)c4ccc(C#N)cc34)OC[C@@H]2CN1[C@H](CC)c1ccc(C(F)(F)F)cc1 [Compound 211] | – | – | 175 nM | 485 nM
CC[C@@H]1CN2c3c(c(=O)n(C)c4ccc(C#N)nc34)N(C)C[C@@H]2CN1[C@@H](CC)c1ccc(C(F)(F)F)cc1 [Compound 221] | – | – | 624 nM | 503 nM
CC[C@@H]1CN2c3c(c(=O)n(C)c4ccc(C#N)nc34)OC[C@@H]2CN1[C@@H](CO)c1ccc(C(F)(F)F)cc1 [Compound 235] | – | – | 662 nM | 538 nM
C[C@H]1c2cccc(-c3ccc(C(F)(F)F)cc3)c2CCN1c1nc(=O)n(C)c2ccc(C#N)nc12 [Compound 241] | – | – | 1100 nM | 588 nM
CC[C@@H]1CN2c3c(c(=O)[nH]c4ccc(C#N)nc34)OC[C@@H]2CN1[C@@H](CC)c1ccc(C(F)(F)F)cc1 [Compound 252] | – | – | 106 nM | 122 nM
CC[C@@H]1CN2c3c(c(=O)n(C)c4ccc(C#N)nc34)OC[C@@H]2CN1Cc1ccc(C(F)(F)F)cc1 [Compound 265] | – | – | 152 nM | 165 nM
CC[C@@H]1CN2c3c(c(=O)n(C)c4ccc(C#N)nc34)OC[C@@H]2CN1Cc1ccc(Cl)c(Cl)c1 [Compound 266] | – | – | 111 nM | 163 nM
CC[C@@H]1CN2c3c(c(=O)n(C)c4ccc(C#N)nc34)OC[C@@H]2CN1[C@@H](c1ccc(C(F)(F)F)cc1)C(C)C [Compound 272] | – | – | 325 nM | 256 nM
CC[C@@H]1CN2c3c(c(=O)n(C)c4ccc(C#N)nc34)OC[C@@H]2CN1[C@@H](COC)c1ccc(C(F)(F)F)cc1 [Compound 283] | – | – | 36 nM | 40 nM
CC[C@@H]1CN2c3c(c(=O)n(C)c4ccc(C#N)nc34)OC[C@@H]2CN1[C@@H](CC)c1ccc(C(C)(F)F)cc1 [Compound 289] | – | – | 7 nM | 16 nM
Cn1c(=O)c2c(c3nc(C#N)ccc31)N1CC[C@@H](Oc3ccc(C(F)(F)F)cc3)C[C@H]1CO2 [Compound 325] | – | – | 561 nM | 688 nM
CC[C@@H]1CN2c3c(c(=O)n(C)c4ccc(C#N)nc34)OC[C@@H]2CN1[C@H](CC)c1ncc(C(F)(F)F)cn1 [Compound 330] | – | – | 115 nM | 267 nM
CC[C@@H]1CN2c3c(c(=O)n(C)c4ccc(C#N)nc34)OC[C@@H]2CN1[C@@H](CC)c1ncc(C(F)(F)F)cn1 [Compound 331] | – | – | 16 nM | 14 nM
CC[C@@H]1CN2c3c(c(=O)n(C)c4ccc(C#N)nc34)OC[C@@H]2CN1[C@@H](c1ccc(C(F)(F)F)cc1)C1CC1 [Compound 346] | – | – | 138 nM | 91 nM
CC[C@@H]1CN2c3c(c(=O)n(C)c4ccc(C#N)nc34)OC[C@@H]2CN1[C@H](c1ccc(C(F)(F)F)cc1)C1CC1 [Compound 347] | – | – | 13 nM | 9 nM
